# Legend:
# Experiment in all cases: Western blot of phage-displayed peptide BRE binding to biotinylated target peptide
# [1] = test system: CHI-P1 (SEQ. ID No. 25), Chitinase; design: species or system fungi; conditions: phage clone with biotinylated target peptide, streptavidin bead pull-down; FIG. 4
# Excerpt: (§1) Recombinant phage clones were selected using X-Gal/IPTG, which produced a blue color on phage infected E. coli colonies. After the amplification of multiple phage isolates carrying a single heptapeptide sequence (i.e., monoclonal phages), genomic DNA was isolated and sequenced to determine the aa sequences of the peptide BREs. Isolated monoclonal phages were sequenced after each round of selection. After four rounds of selection, the phage pool was enriched for target-binding phages with specific sequences. […] The binding of phages displaying specific peptide BREs to the target was assessed by Western blot analysis. Monoclonal target-specific bacteriophages were incubated with biotinylated target peptide epitope under conditions similar to those used in biopanning. The resulting phage-target complexes were recovered using streptavidin-coated magnetic beads, and the phage-target complexes were resolved via SDS-PAGE and detected by Western blot using antibodies against the M13 phage capsid and the biotin molecule attached to the specific target. Western blotting was performed by preparing a 200 μL solution with each of the phage clones at a concentration of 1×10^11 pfu/mL in 1×TBS, pH 7.5. Then, 10 μL of biotinylated target peptide of concentration 1 mg/mL was added to each phage solution and incubated at 25° C. for 1 hr. […]
# [2] = test system: Gor-Fasciclin (SEQ. ID No. 58), Gordonia-Fasciclin; conditions: phage clone with biotinylated target peptide, streptavidin bead pull-down; FIG. 5
# Chain of Gor-Fasciclin (SEQ. ID No. 58), Gordonia-Fasciclin (as listed by the source): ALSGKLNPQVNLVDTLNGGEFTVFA
# Excerpt: as §1, with “hr. Phage-biotin target complexes were captured and pull-down with 25 μL of streptavidin-coated beads, and the captured complexes washed five times with 1×TBST. The pelleted complexes were re-suspended in 20 μL of 2× Laemmli Buffer, heated to 95° C. for 5 min, and resolved in a 14% SDS-PAGE gel. Proteins were blotted to a nitrocellulose membrane and blocked with TBST containing 5% BSA. To detect phages, a 1:2000 dilution of rabbit anti-M13 phage antibody (primary antibody) followed by a 1:5000 dilution of alkaline phosphatase (AP)-conjugated goat anti-rabbit antibody was used. For detection of biotinylated target, a 1:2000 dilution of AP-conjugated goat anti-biotin antibody was used. For colorimetric visualization, BCIP/NBT reagent was used.” for “hr.”
# [3] = test system: ALK-P3 (SEQ. ID No. 1), P450 Alkane Hydroxylase; design: species or system fungi; conditions: phage clone with biotinylated target peptide, streptavidin bead pull-down; FIG. 4
# Chain of ALK-P3 (SEQ. ID No. 1), P450 Alkane Hydroxylase (as listed by the source): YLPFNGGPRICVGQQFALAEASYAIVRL
# Excerpt: as §1
Substance,"binding to Gor-Fasciclin (SEQ. ID No. 58) target, Western blot [2]",further results
MPPHGDR (Artificial Sequence Obtained Through Biopanning) [SEQ. ID No. 26],,"binding to CHI-P1 (SEQ. ID No. 25) target, Western blot [1]: specific binding"
RSLGYTG (Artificial Sequence Obtained Through Biopanning) [SEQ. ID No. 60],specific binding,
TWTLARP (Artificial Sequence Obtained Through Biopanning) [SEQ. ID No. 59],specific binding,
WSLGYTG (Artificial Sequence Obtained Through Biopanning) [SEQ. ID No. 2],,"binding to ALK-P3 (SEQ. ID No. 1) target, Western blot [3]: specific binding"
YVPEWVS (Artificial Sequence Obtained Through Biopanning) [SEQ. ID No. 61],specific binding,

# Reference: patent US11754547B2, “Biorecognition elements for detection of fungi and bacteria in fuel systems” (priority 2020, dated 2023)
